The numbers were not newly measured in patent US20040202718A1, “Dosage form for treatment of diabetes mellitus” (priority 2001, published 2004), which cites them from elsewhere.

Structures can show the parent of a compound that is named as a salt.

For the data set the following is noted: clinical study disclosed in U.S. Pat. No. 5,922,769.

Consider `CN(C)C(=N)N=C(N)N` [Metformin hydrochloride], for which the “maximum dose which does not cause any side-effects” value is recorded as 1500 mg/day.
